Test results published in the supplement of paper PMC4858399.
Counter-ions that a name gives are not always drawn.

Tests used:
[1] = test system: Caenorhabditis elegans N2; assay: lowest effective concentration for larval growth inhibition (size below effect threshold); higher = less potent; conditions: exposure time 48 h
Summary of the method: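 Each well of a 96-well plate received 50 C. elegans N2 L1 larvae, which grew for 48 h at 20°C in K-medium containing killed bacteria, 1% DMSO and the chemical at 0.5, 1, 5, 10, 50, 100 or 200 µM. A Biosort recorded the extinction of every worm as its size, and these readings were log-transformed and averaged per well. The lowest effective concentration is defined as the first dose at which the plate-adjusted mean size falls below the threshold and stays below it at all higher doses; that threshold is 5.665.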

[2] = test system: Caenorhabditis elegans N2; assay: mean nematode size ln(EXT) after 48 h, plate-adjusted (DMSO control set to 6) (ln(EXT), control-adjusted); higher = larger nematodes / less growth inhibition; conditions: exposure time 48 h
Summary of the method: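 Synchronised C. elegans N2 L1 larvae were grown for 48 h at 20°C in K-medium containing killed OP50, 1% DMSO and 0.5–200 µM chemical, at 50 per well and 4–6 wells per treatment. The Biosort recorded extinction for each worm, and a growth model removed debris. Worm size was obtained by natural-logging these values and averaging them per well. For plate adjustment, the vehicle control mean was subtracted and 6 was added.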

SMILES	lowest effective concentration [1] [µM]	mean nematode size ln(EXT) (ln) ([2]; 0.5 µM)	mean nematode size ln(EXT) (ln) ([2]; 1 µM)	mean nematode size ln(EXT) (ln) ([2]; 5 µM)	mean nematode size ln(EXT) (ln) ([2]; 10 µM)	mean nematode size ln(EXT) (ln) ([2]; 50 µM)	mean nematode size ln(EXT) (ln) ([2]; 100 µM)	mean nematode size ln(EXT) (ln) ([2]; 200 µM)
CC(C)c1ccc(C(=O)N=C(N)N)cc1S(C)(=O)=O [Cariporide mesylate (HOE642)]	> 200	5.88	5.82	5.8	5.77	5.7	5.62	5.71
CCCCCCC(=O)OCC [Heptanoic acid, ethyl ester]	> 200	5.88	5.93	5.82	6.08	5.85	5.89	6.02
Clc1cccc(Cl)c1 [1,3-Dichlorobenzene]	> 200	5.9	5.89	5.87	5.96	5.99	5.99	5.79
CC(=O)Oc1ccccc1C(=O)O [Aspirin]	> 200	5.74	5.85	5.81	6.1	5.89	5.89	5.71
Cc1ccc([N+](=O)[O-])cc1 [4-Nitrotoluene]	> 200	5.99	5.92	5.98	5.85	5.94	5.95	5.77
CCOCCO [2-Ethoxyethanol]	> 200	5.85	5.79	5.75	5.64	5.72	5.89	5.79
Cc1cc(Cl)ccc1OCC(=O)O [MCPA]	> 200	5.99	6.05	6.18	6.02	6.09	6.02	5.9
CCC(C)(CC)c1cc(NC(=O)c2c(OC)cccc2OC)on1 [Isoxaben]	> 200	5.88	5.93	6.01	6.02	5.92	6.03	5.93
COCc1nnc(-c2ccc[n+]([O-])c2)n1-c1c(Cl)c(Cl)cc2[nH]c(=O)c(=O)[nH]c12	> 200	5.89	6.15	6.22	6.24	6.17	6.08	5.67
N[C@@H](Cc1c[nH]c2ccccc12)C(=O)O [L-Tryptophan]	> 200	5.91	5.87	5.89	5.86	5.85	5.96	5.7
CNC(C)=O [N-Methylacetamide]	> 200	6.09	6.1	6.07	6.02	6.03	6.07	5.84
Cc1ccc(C)c(O)c1 [2,5-Dimethylphenol]	> 200	5.86	5.95	5.74	5.83	5.95	5.83	5.72
OCC(CO)n1cnc(-c2ccc(F)cc2)c1-c1ccnc(Oc2ccccc2)n1	> 200	6.02	5.98	5.97	6.03	6.04	5.98	5.82
CC[C@H](C)C(=O)O[C@H]1C[C@H](O)C=C2C=C[C@H](C)[C@H](CC[C@@H](O)C[C@@H](O)CC(=O)O)[C@H]21 [Pravastatin sodium]	> 200	5.99	5.97	5.93	5.92	5.91	5.79	5.81
C=C(C)C(N)=O [Methacrylamide]	> 200	6.05	5.91	5.89	5.82	6.01	5.82	5.86
Cc1ccc([N+](=O)[O-])cc1N [2-Methyl-5-nitroaniline]	50	5.93	5.42	5.81	5.9	5.13	5.58	5.66
Cc1ccc(O)cc1C [3,4-Dimethylphenol]	> 200	5.87	5.86	5.92	5.91	5.95	5.86	5.86
CCCCC(CC)C(=O)OCCOCCOCCOC(=O)C(CC)CCCC (stereo not drawn) [Tri(ethylene glycol) bis(2-ethylhexanoate)]	> 200	5.84	5.86	6	5.97	5.86	5.84	5.79
CC[C@H]1OC(=O)[C@H](C)[C@@H](O[C@H]2C[C@@](C)(OC)[C@@H](O)[C@H](C)O2)[C@H](C)[C@@H](O[C@@H]2O[C@H](C)C[C@H](N(C)C)[C@H]2O)[C@](C)(O)C[C@@H](C)C(=O)[C@H](C)[C@@H](O)[C@]1(C)O [Erythromycin]	> 200	5.95	5.89	5.94	5.9	5.86	5.92	5.84
COCc1cnc(C2=NC(C)(C(C)C)C(=O)N2)c(C(=O)O)c1 (stereo not drawn) [Imazamox]	> 200	5.93	5.93	5.91	5.96	6	6.01	5.83
CCNc1nc(NC(C)C)nc(SC)n1 [Ametryn]	> 200	6.09	6.82	6.12	6.27	6.45	6.38	5.72
Cc1occc(=O)c1O [Maltol]	> 200	6.08	5.97	6.02	6.07	6	5.93	5.76
C/C=C/C=C/C(=O)O [Sorbic acid]	> 200	5.84	5.83	5.82	5.95	5.89	5.86	5.7
NCC1(Cc2noc(=O)[nH]2)CCCCC1	> 200	5.77	5.69	5.76	5.73	5.69	5.72	5.7
Cc1ccn2nc(S(=O)(=O)Nc3c(F)cccc3F)nc2n1 [Flumetsulam]	> 200	5.91	5.95	6.03	6.05	5.93	6.02	5.88
CN(C)C(=S)[S-].CN(C)C(=S)[S-].[Zn+2] [Ziram]	> 200	5.98	5.89	5.78	5.83	5.84	5.75	5.77
